According to patent US5789589A, “Guanine analog phosphates” (Drug Innovation & Design, Inc., priority 1996, dated 1998):

Assays:
[1] = test system: herpes simplex labialis; settings: cited from earlier work
[2] = test system: TK^+ HSV 1; test: In vitro antiviral activity (CPE) against TK^+ HSV-1 (BWVL#10186) in Vero cells; type: cell-based, Herpes type 1 virus (HSV-1), human clinical isolate; settings: for EC50: Human alphaherpesvirus 1, TK^+ HSV 1, Vero cells, CPE, about 72 hours, read-out: ED50 (the source's name); for Activity compared with acyclovir (in words): in vitro, TK^+ HSV-1
Protocol: (§1) The following test were carried out essentially as described by Sidwell and Huffman (Sidwell, et al., App. Microbiol., 22:797-801 (1971)), and was used in the reports on the in vitro antiviral activity of ribavirin (Sidwell, et al. Science, 177:705-706 (1972); Huffman, et al., Antimicrob. Ag. Chemother., 3:235-241 (1973)).
(§2) Herpes type 1 virus (HSV-1), BWVL#10186, is a thymidine kinase positive (TK^+) human clinical isolate provided by Dr. M. Nixon Ellis, Burroughs Wellcome Co. (Research Triangle Park, N.C.). The BWVL#10168 strain of HSV-1 is a TK- patient isolate (resistant partner to 10186) that was also provided by Dr. Ellis. Both strains were prepared in Vero cells, ampuled, and frozen at -80° C. Antiviral testing was performed in Vero cells.
(§3) Vero (continuously passaged African green monkey kidney) was obtained from the American Type Culture Collection (ATCC) (Rockville, Md.). Growth medium was Medium 199, 5% FBS and 0.1% NaHCO3. Test medium was Eagle's minimum essential medium with non-essential amino acids (MEM), with 2% FBS, 0.18% NaHCO3 and 50 μg gentamicin/ml. The growth medium contained no antibiotics.
(§4) Compounds were weighed and a sufficient amount added to DMSO (American Type Culture Collection, Rockville, Md.) to prepare a solution at 20 mg/ml.
(§5) Cells were seeded to 96-well flat-bottomed tissue culture plates (Corning Glass Works, Corning, N.Y.), 0.2 ml/well, at the proper cell concentration, and incubated overnight at 37° C. in order to establish cell monolayers. The growth medium was decanted and the various dilutions of test compound were added to each well (4 wells/dilution, 0.1 ml/well). Compound diluent medium was added to cell and virus control wells (0.1 ml/well). Virus, diluted in test medium, was added to compound test wells (3 wells/dilution of compound) and to virus control wells at 0.1 ml/well. Virus was added approximately 5 minutes after compound. Test medium without virus was added to all toxicity control wells (1 well/dilution of each test compound) and to cell control wells at 0.1 ml/well. The plates were sealed with plastic wrap (SARAN™) and incubated at 37° C. in a humidified incubator with 5% CO2, 95% air atmosphere until virus control had adequate cytopathic effect (CPE) readings. This was usually achieved after 72 hours. Cells were then examined microscopically for CPE, this being scored from 0 (normal cells) to 4 (maximal, 100%, CPE). The cells in the toxicity control wells were observed microscopically for morphologic changes attributed to cytotoxicity. This cytotoxicity was graded as: T (assigned 100% toxicity), PVH (assigned 80% cytotoxicity), PH (assigned 60% cytotoxicity), P (assigned 40% cytotoxicity), PSI (assigned 20% cytotoxicity), and 0 (normal cells). The 50% effective dose (ED50) and 50% cytotoxic dose (CD50) were calculated by regression analysis of the virus CPE data and the toxicity control data, respectively.
(§6) A known active substance, acyclovir, was run in the same manner as above for each batch of compounds tested.

[3] = in vitro; type: cell-based; settings: african green monkey, vero cells
Protocol: as §3, §4, §5

[4] = test system: TK^- HSV 1; test: In vitro antiviral activity (CPE) against TK^- acyclovir resistant HSV-1 (BWVL#10168) in Vero cells; type: cell-based, Herpes type 1 virus (HSV-1), patient isolate; settings: for EC50: Human alphaherpesvirus 1, Vero, 72 h, read-out: ED50; for Activity relative to acyclovir (fold more active): in vitro, acyclovir resistant (TK^-) HSV-1
Protocol: as §1, §2, §3, §4, §5, §6

[5] = test system: HSV-1; test: Dermal HSV-1 infection in guinea pigs, topical treatment; type: in vivo, Female Hartley outbred guinea pigs; settings: for Comparison with U.S. ZOVIRAX in all three efficacy parameters: Mann-Whitney test, p=0.0008, 0.0008, 0.001; for Reduction in lesion number (in words): guinea pigs with dermal HSV-1 lesions, compared to vehicle; for Lesion Number, % Diff vs placebo / Lesion virus titer, % Diff vs placebo / Total Lesion Area, % Diff vs placebo: positive value = reduction vs vehicle, p=0.012; for Lesion virus titer, mean: skin taken Day 4, plaque formation in VERO cells; for Lesion Number, mean: prodrug cream (1.2% Prodrug 1 or 1.87% Prodrug 2) 2x/day on Days 1, 2 and 3
Protocol: The formulation for Prodrugs 1 and 2 contained 5% EL-620 EMULPHOR (polyoxyethylated castor oil) (Rhone Poluenc), 5% CARBOPOL (Carboxypolymethylene, sodium salt) (B.F. Goodrich), 10% ethanol and 1.2% by weight Prodrug 1 (or 1.87% by weight Prodrug 2). The balance of the formulation consisted of water.
EL-620 EMULPHOR and water were mixed and ultrasonicated to give a clear emulsion, to which the ethanol was added. The prodrug was then added, and the mixture was ultrasonicated to give an opalescent emulsion. The sodium carbopol was then added to the emulsion and mixed until to homogeneity.
The placebo was prepared identically to the pharmaceutical compositions except that the prodrugs were omitted.
Female Hartley outbred guinea pigs, 400 to 450 grams, were obtained from Charles River Breeding Labs, Wilmington, Mass. Animals were anesthetized with 25 mg/kg ketamine and 5 mg/kg xylazine SQ. Hair on the dorsum from the shoulders to the rump was removed with electric clippers followed by two 5-10 minute applications of a chemical depilatory. A grid of four areas was demarcated with a pen on both sides of the spine at levels corresponding to mid back and rump.
Undiluted HSV-1 virus stock (0.035 ml) was applied to each different area and introduced through the skin at well-spaced sites at ten activations of a six-pronged spring-loaded vaccination instrument (Sterneedle, Pan Ray Division, Ormont Drug, Englewood, N.J.). The day of inoculation is Day 0. Approximately 250 mg of drug or placebo was applied to the areas according to the dosing regimen on Days 1, 2 and 3. Eight guinea pigs were used during the experiments allowing eight comparisons between each drug and its placebo. 5% ZOVIRAX ointment U.S.A. (Acyclovir) applied 4×/day was used as a control.
On Day 4 regrown hair on the dorsum of the guinea pigs was removed with one 3-4 minute application of a chemical depilatory. HSV lesions were counted and Polaroid pictures of the animals' backs were taken. The animals were sacrificed using CO2 gas and the full thickness skin of the back was removed by dissection. The square of the skin from each of the four treatment areas was placed into 15 mls of tissue culture medium with 2% FBS in an ice bath. The samples were then homogenized in a stomacher Lab Blender 80 (Tekmar Co.). Debris was pelleted by centrifugation and the supernatants collected and frozen at -70 C. until assay for infectivity by plaque formation in VERO cells.
The mean and standard deviation for number of lesions, total lesion area and lesion virus titer were computed for each treatment pair. Paired data (drug/vehicle) were evaluated by the Wilcoxon signed-rank test using percent differences between log10 derivatives of mean lesions severity at drug-treated sites compared to the vehicle-treated sites.

[6] = test system: Herpes Simplex Virus-1; test: Healing of vaginal lesions in mice caused by Herpes Simplex Virus-1; type: in vivo; settings: topical application
[7] = test system: pig liver esterase; test: Incubation with pig liver esterase in phosphate buffered D2O, NMR; type: in vitro ADME
[8] = prodrug cream 2x/day on Days 1, 2 and 3, assessed Day 4, n=8
[9] = prodrug cream 2x/day on Days 1, 2 and 3, n=8
[10] = prodrug cream 2x/day on Days 1, 2 and 3

Row | Structure (SMILES) | Effectiveness of oral administration in treatment of cold sores ([1]; oral) | Response of cold sores to topical treatment ([1]; topical) | EC50 [2] | CC50 [3] | EC50 [4] | Activity compared with acyclovir (in words) [2] | Comparison with U.S. ZOVIRAX in all three efficacy parameters [5] | Reduction in lesion number (in words) [5] | Lesion Number, median [5, 8] | Total Lesion Area, median [5, 8] | Lesion virus titer, median [5, 9] | Lesion Number, % Diff vs placebo [5, 10] | Lesion virus titer, % Diff vs placebo [5, 10] | Total Lesion Area, % Diff vs placebo [5, 10] | Lesion virus titer, mean [5, 9] | Lesion Number, mean ([5]; assessed Day 4, n=8) | Activity relative to acyclovir (fold more active) [4] | Healing of vaginal lesions [6] | Total Lesion Area, mean [5, 8] | Degradation by pig liver esterase [7]
1 | Nc1nc2c(ncn2COCCO)c(=O)[nH]1 [Acyclovir, acyclovir, reference compound] | only partially effective | do not respond to the topical treatment | 1.4 µM | > 100 µg/mL | 35 µM | – | – | – | – | – | – | – | – | – | – | – | – | – | – | –
2 | COC(=O)CC(O[PH](=O)OCCOCn1cnc2c(=O)[nH]c(N)nc21)c1ccc(OC(=O)C(C)(C)C)cc1 (stereo not drawn) [Prodrug 3] | – | – | 5.5 µM | > 100 µg/mL | 37 µM | same order of magnitude as acyclovir | – | – | – | – | – | – | – | – | – | – | – | – | – | –
3 | COC(=O)CC(OP(=O)(OCCOCn1cnc2c(=O)[nH]c(N)nc21)OC(CC(=O)OC)c1ccc(OC(=O)C(C)(C)C)cc1)c1ccc(OC(=O)C(C)(C)C)cc1 (stereo not drawn) [Prodrug 2] | – | – | 6.3 µM | > 100 µg/mL | 7.5 µM | same order of magnitude as acyclovir | worked significantly better than U.S. ZOVIRAX in all three of the efficacy parameters measured | dramatic reduction in lesion number | 36.0 | 109 mm2 | 3.12 log (pfu/ml) | 35% | 97% | 57% | 2.87 log (pfu/ml) | 37 | about 5 × | effective in promoting the healing of vaginal lesions in mice | – | –
4 | COC(=O)CC(OP(=O)(OCCOCn1cnc2c(=O)[nH]c(N)nc21)OC(CC(=O)OC)c1ccc(OC(C)=O)cc1)c1ccc(OC(C)=O)cc1 (stereo not drawn) [Prodrug 1] | – | – | 4.6 µM | > 100 µg/mL | 17 µM | same order of magnitude as acyclovir | worked significantly better than U.S. ZOVIRAX in all three of the efficacy parameters measured | dramatic reduction in lesion number | 32.0 | 107 mm2 | 3.17 log (pfu/ml) | 45% | 96% | 59% | 3.07 log (pfu/ml) | 32 | about 2 × | – | 106 mm2 | degraded to acyclovir monophosphate and p-hydroxycinnamic
